This is an account of results in ChEMBL document CHEMBL5236613, “Exploration of 1,2,3-triazole linked benzenesulfonamide derivatives as isoform selective inhibitors of human carbonic anhydrase” (Bioorg Med Chem, 2023).

The subject of one assay is A549. Description: cells. The settings on record: Homo sapiens, A549, 24 h.
Another assay deals with Carbonic anhydrase 9 (Homo sapiens, UniProt Q16790). Description: Inhibition of human transmembrane carbonic anhydrase 9 using 4-nitrophenyl acetate as substrate assessed as inhibition constant by spectrophotometric analysis.

Description for A549: Antiproliferative activity against human A549 cells assessed as inhibition of cell growth incubated for 24 hrs by MTT assay

`NS(=O)(=O)c1ccc(-n2cc(COC(=O)c3ccc4c(c3)C(=O)N(c3ccccc3I)C4=O)nn2)cc1` gave an IC50 with A549 of 258 µM. Also, at Carbonic anhydrase 9, the Ki came to 0.0353 µM.
Regarding `NS(=O)(=O)c1ccc(-n2cc(COC(=O)c3ccc4c(c3)C(=O)N(c3ccccc3Cl)C4=O)nn2)cc1`, the midpoint of inhibition in the assay on A549, the IC50, lay at 290 µM. In addition, the Ki on Carbonic anhydrase 9 stood at 0.0186 µM.
`NS(=O)(=O)c1ccc(-n2cc(COC(=O)c3ccc4c(c3)C(=O)N(c3ccc(Cl)cc3)C4=O)nn2)cc1` registered an IC50 in the assay on A549 of 352 µM. For the same molecule, the Ki at Carbonic anhydrase 9 was determined as 0.0489 µM.
Molecule `COc1cccc2c1C(=O)c1c(O)c3c(c(O)c1C2=O)C[C@@](O)(C(=O)CO)C[C@@H]3O[C@H]1C[C@H](N)[C@H](O)[C@H](C)O1` [DOXORUBICIN] returned an IC50 in the assay with A549 of 10.8 µM.
In the assay with A549, `NS(=O)(=O)c1ccc(-n2cc(COC(=O)c3ccc4c(c3)C(=O)N(c3ccccc3)C4=O)nn2)cc1` displayed an IC50 of 300 µM. The Ki on Carbonic anhydrase 9 was found to be 0.0183 µM.
Consider `NS(=O)(=O)c1ccc(-n2cc(COC(=O)c3ccc4c(c3)C(=O)N(c3cccc(F)c3)C4=O)nn2)cc1`, for which the IC50 in the assay on A549 amounted to 231 µM. Also, on Carbonic anhydrase 9, the Ki amounted to 0.0229 µM.
In the same order, the values of `CCCCCCCCN1C(=O)c2ccc(C(=O)OCc3cn(-c4ccc(S(N)(=O)=O)cc4)nn3)cc2C1=O` are 235 µM and 0.05 µM.
For `N#Cc1ccc(N2C(=O)c3ccc(C(=O)OCc4cn(-c5ccc(S(N)(=O)=O)cc5)nn4)cc3C2=O)cc1`, inhibition in the assay on A549 was half-maximal at 266 µM (IC50). The Ki on Carbonic anhydrase 9 is 0.0286 µM.
In the same order, the values of `CCCCN1C(=O)c2ccc(C(=O)OCc3cn(-c4ccc(S(N)(=O)=O)cc4)nn3)cc2C1=O` are 199 µM and 0.035 µM.
The like results for `NS(=O)(=O)c1ccc(-n2cc(COC(=O)c3ccc4c(c3)C(=O)N(Cc3ccc5c(c3)OCO5)C4=O)nn2)cc1` were, in that order, 130 µM and 0.0239 µM.
On to `NS(=O)(=O)c1ccc(-n2cc(COC(=O)c3ccc4c(c3)C(=O)N(c3cccc5ccccc35)C4=O)nn2)cc1`, for which the IC50 with A549 worked out at 278 µM. Further, the Ki at Carbonic anhydrase 9 is 0.0253 µM.
The like results for `CCCCCCN1C(=O)c2ccc(C(=O)OCc3cn(-c4ccc(S(N)(=O)=O)cc4)nn3)cc2C1=O` were, in that order, 161 µM and 0.0752 µM.
`Cc1cccc(C)c1N1C(=O)c2ccc(C(=O)OCc3cn(-c4ccc(S(N)(=O)=O)cc4)nn3)cc2C1=O` returned an IC50 in the assay on A549 of 253 µM. Further, the Ki on Carbonic anhydrase 9 was 0.0245 µM.

One may read the IC50 as the point on the concentration scale where inhibition reaches its midpoint. Read a low IC50 as greater potency. What is called Ki is the equilibrium dissociation constant of an inhibitor or competing ligand from its target.
